Measurements from the supplement of paper PMC10307832.

Legend:
Assay in all cases: relative viability (nuclei count vs DMSO), 5 days (fraction); higher = more cells survive
Avagacestat + Bortezomib = compound: NC(=O)[C@@H](CCC(F)(F)F)N(Cc1ccc(-c2ncon2)cc1F)S(=O)(=O)c1ccc(Cl)cc1 [Avagacestat] + CC(C)C[C@H](NC(=O)[C@H](Cc1ccccc1)NC(=O)c1cnccn1)B(O)O [Bortezomib] (partner 0.002 µM)
How it was run: (§1)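 Relative viability was taken as the ratio of nuclei in treated wells to nuclei in vehicle wells. Lung cancer cell lines in 1536-well plates received compounds by pin tool one day after seeding, either one drug alone or a fixed anchor-drug dose plus five library-drug doses (not always all listed) in √10 steps. Nuclei were counted on 4× images after 5 days of treatment, and values are medians of duplicate plates.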

Avagacestat + Pictilisib = compound: NC(=O)[C@@H](CCC(F)(F)F)N(Cc1ccc(-c2ncon2)cc1F)S(=O)(=O)c1ccc(Cl)cc1 [Avagacestat] + CS(=O)(=O)N1CCN(Cc2cc3nc(-c4cccc5[nH]ncc45)nc(N4CCOCC4)c3s2)CC1 [Pictilisib] (partner 1 µM)
How it was run: as §1

Avagacestat + Olaparib = compound: NC(=O)[C@@H](CCC(F)(F)F)N(Cc1ccc(-c2ncon2)cc1F)S(=O)(=O)c1ccc(Cl)cc1 [Avagacestat] + O=C(c1cc(Cc2n[nH]c(=O)c3ccccc23)ccc1F)N1CCN(C(=O)C2CC2)CC1 [Olaparib] (partner 8 µM)
How it was run: as §1

Avagacestat + Trametinib = compound: NC(=O)[C@@H](CCC(F)(F)F)N(Cc1ccc(-c2ncon2)cc1F)S(=O)(=O)c1ccc(Cl)cc1 [Avagacestat] + CC(=O)Nc1cccc(-n2c(=O)n(C3CC3)c(=O)c3c(Nc4ccc(I)cc4F)n(C)c(=O)c(C)c32)c1 [Trametinib] (partner 0.02 µM)
How it was run: as §1

Cell Line	relative viability (Avagacestat + Bortezomib; first compound 0.08 µM)	relative viability (Avagacestat + Bortezomib; first compound 0.253 µM)	relative viability (Avagacestat + Bortezomib; first compound 0.8 µM)	relative viability (Avagacestat + Bortezomib; first compound 2.53 µM)	relative viability (Avagacestat + Bortezomib; first compound 8 µM)	relative viability (Avagacestat + Pictilisib; first compound 0.08 µM)	relative viability (Avagacestat + Pictilisib; first compound 0.253 µM)	relative viability (Avagacestat + Pictilisib; first compound 0.8 µM)	relative viability (Avagacestat + Pictilisib; first compound 2.53 µM)	relative viability (Avagacestat + Pictilisib; first compound 8 µM)	relative viability (Avagacestat + Olaparib; first compound 0.08 µM)	relative viability (Avagacestat + Olaparib; first compound 0.253 µM)	relative viability (Avagacestat + Olaparib; first compound 0.8 µM)	relative viability (Avagacestat + Olaparib; first compound 2.53 µM)	relative viability (Avagacestat + Olaparib; first compound 8 µM)	relative viability (Avagacestat + Trametinib; first compound 0.08 µM)	relative viability (Avagacestat + Trametinib; first compound 0.253 µM)	relative viability (Avagacestat + Trametinib; first compound 0.8 µM)	relative viability (Avagacestat + Trametinib; first compound 2.53 µM)	relative viability (Avagacestat + Trametinib; first compound 8 µM)
ChaGo-K-1	1.02	0.914	1.14	1.32	1.06	0.701	0.675	0.924	1.09	0.801	0.431	0.435	0.394	0.437	0.394	0.95	0.933	0.897	0.817	0.797
EBC-1	0.496	0.521	0.524	0.449	0.381	0.429	0.331	0.413	0.362	0.327	0.76	0.868	0.704	0.799	0.537					
EKVX	1.18	1.44	1.23	0.885	0.9	0.443	0.528	0.523	0.393	0.435	1.04	0.926	0.918	0.73	0.769	0.468	0.39	0.348	0.303	0.298
EMC-BAC-2	1.22	1.17	1.23	1.08	1.11	0.567	0.554	0.564	0.489	0.517	0.542	0.626	0.623	0.548	0.616	0.986	1.2	1.05	0.955	1.02
EPLC-272H	1.02	1.02	1.05	1.21	0.922	0.325	0.273	0.346	0.371	0.241	0.939	1.04	0.905	0.783	0.635	0.309	0.295	0.316	0.333	0.248
H3255	1.02	0.966	1.08	0.817	0.788	0.488	0.544	0.494	0.481	0.474	0.626	0.663	0.609	0.621	0.572	0.673	0.644	0.777	0.569	0.589
HARA	1.71	1.09	1.17	1.16	1.07	0.368	0.517	0.417	0.342	0.373	0.852	0.958	0.869	0.501	0.834	0.704	0.764	0.757	0.536	0.647
HCC-15	1.22	1.21	1.24	0.973	0.921	0.837	0.801	0.802	0.808	0.611	0.755	0.887	0.862	0.77	0.674	0.395	0.44	0.391	0.394	0.374
